Data from US20250129045A1, “SMALL MOLECULE PIM AND MTOR KINASE INHIBITOR AND METHODS OF USE THEREOF” (Arizona Board of Regents on Behalf of the University of …, priority 2022, published 2025).
“Also recorded” adds a separate entry of the source.

Tested on: PC3-LN4 cells
Experiment: P-body (PB) number in PC3-LN4 GFP-EDC3 cells
Format: cell-based, human
Details: 6 h
Protocol: FIGS. 7A-7I show inhibition of VBT5445 (VBT) on Pim1 and EDC3 binding and phosphorylation. FIG. 7A: In vitro co-precipitation (Co-PPT) assay was performed with recombinant EDC3 and biotinylated Pim1 using Streptavidin beads with increasing concentrations of the Pim inhibitor VBT5445 (VBT). FIG. 7B: Kinase assays were performed with recombinant EDC3 and Pim1 with increasing concentrations of VBT. FIG. 7C: Cell lysates from PC3-LN4 cells cultured with DMSO, 10 μM VBT, 3 μM AZD5363 (AKTi) and the combination for 6 hrs were subjected to western blotting (WB). […] WBs were performed using the indicated antibodies. FIG. 7E: PC3-LN4 cells were seeded into 48 well plate and incubated with either DMSO, VBT, AZD5363 or the combination, for 4.5 days. A real-time imaging system (IncuCyte™) was used to measure cell proliferation using a non-label cell monolayer confluence approach. FIG. 7F-7H: GFP image in PC3 LN4 GFP EDC3 expressing cells treated with PIMi: VBT (5 μM) and VBT (5 μM)+AZD5363 (3 μM) for 6 hrs.
To measure PB numbers, PC3-LN4 PCa cells containing a CRISPR/Cas total knock-out of EDC3 were stably transduced with GFP-EDC3. When localized in PBs, GFP spots could be quantified. PBs were quantified at the University of Colorado Center for Drug Discovery using an Opera Phenix Plus high content screening system (PerkinElmer) Perkin Elmer G3 robotic system after drug treatment. Assays were carried out in quadruplicate and the mean number of PBs per cell and cell area calculated. An example of this assay is shown using […] buffered saline (HBSS) to induce PB formation.
Immunofluorescence: Immunofluorescence (IF) staining was performed on PC3-LN4 cells stably expressing EDC3-GFP. 1×10^4 cells were seeded in each chamber of an 8 well chamber slide (Nunc Lab-Tek II Chamber Slide System, Life Technologies) and cultured for 48 h. After attaching to the chamber slides cells were treated with DMSO, VB-5445 ([…]), AZD5363 (3 μM), or the combination for 6 h. Cells were then fixed with 4% paraformaldehyde in PBS for 15 min and subsequently permeabilized with 0.2% Triton X-100 in PBS. Cells were stained with diluted DAPI (1:4000) in 1% nor-mal goat serum in PBS. Cells were mounted with Prolong Gold Antifade mounting medium (Molecular Probes).

## O=c1c(CNCc2cc(Br)ccn2)cc2ccc(Cl)cc2n1CCOc1ccccc1 [GRG-1-34, 3-((((4-bromopyridin-2-yl)methyl)amino)methyl)-7-chloro-1-(2-phenoxyethyl) quinolin-2 (1H)-one]
Combination with AZD5363 (3 μM), listed as VBT 1-34
  number of P-bodies, with AKT inhibitor AZD5363 added: further increased the number of P-bodies; also recorded: further increases P-bodies
Compound alone
  number of P-bodies: increases the number of P-bodies
